How the values were obtained:
[1] = system: NR3B2 (ERRβ); settings: ref Supplementary Table 1, cited from earlier work
[2] = molecular target: T1, NR1B1 (RARα) (Homo sapiens, UniProt P10276); assay: Gal4 hybrid reporter gene assay RARα; format: cell-based; design: Activity on NR targets outside NR3 family [mean log10(fold reporter gene activity)] NR1B1 (RARα): concentration or dose not given beside the values
T1 construct: expressed in transfected cells; host or cells: HEK293T
Protocol: (§1) Reference ligands are listed in the methods section.
Five hours after transfection, the cells were incubated with the NR3 CG compound candidates at the recommended concentrations by changing the medium to Opti-MEM supplemented with penicillin (100 µ/mL) and streptomycin (100 µg/mL) additionally containing 0.1% DMSO and the respective test compound or 0.1% DMSO alone as untreated control. Firefly (reporter) and renilla (control) luminescence were measured after 14–16 h incubation using the Dual-Glo® Luciferase Assay System (Promega, Fitchburg, Wisconsin, USA; #E2980) according to manufacturer’s protocol on a Tecan Spark® 10M multimode microplate reader (Tecan Group AG, Männedorf, Switzerland). To obtain relative light units (RLU) firefly luminescence was divided by renilla luminescence and multiplied by 1000. Fold activation was obtained by dividing the mean RLU of a test sample by the mean RLU of the DMSO (0.1%) control. Experiments were performed in singlets in at least three biologically independent repeats.
Supplementary Figure 1. […] Compounds are labeled according
Supplementary Figure 2. […] Compounds are
representing the NR1, NR2, NR4 and NR5 families.
scanning fluorimetry (DSF).
a concentration of 20 µM.

[3] = molecular target: T2, NR1I2 (PXR) (Homo sapiens, UniProt O75469); assay: Gal4 hybrid reporter gene assay PXR; format: cell-based; settings: 1 µM, n=3
T2 construct: expressed in transfected cells; host or cells: HEK293T
T2 sequence (O75469 146-433 limits assumed): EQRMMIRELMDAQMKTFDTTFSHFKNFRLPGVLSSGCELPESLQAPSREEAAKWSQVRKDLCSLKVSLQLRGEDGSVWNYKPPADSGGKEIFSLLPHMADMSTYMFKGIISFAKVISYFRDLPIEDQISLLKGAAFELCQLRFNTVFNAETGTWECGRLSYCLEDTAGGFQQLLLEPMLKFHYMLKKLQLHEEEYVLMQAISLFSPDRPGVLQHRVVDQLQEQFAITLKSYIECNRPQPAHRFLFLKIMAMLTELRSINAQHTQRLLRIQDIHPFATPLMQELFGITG
Protocol: as §1
(§2) HEK293T cells (ATCC, Manassas, Virgina, USA; #CRL-3216) were cultured to a maximal confluence of 70–80% in DMEM, high glucose, supplemented with 10% FCS, sodium pyruvate (1 mM), penicillin (100 U/mL), and streptomycin (100 μg/mL) at 37 °C and 5% CO2 (v/v), and seeded in clear 96-well plates (4 × 10^4 cells per well). After 20–24 h, medium was changed to Opti-MEM without supplements and the cells were transiently transfected using Lipofectamine™ LTX/Plus™ Reagents (Invitrogen, Carlsbad, California, USA; #15338100) according to the manufacturer’s protocol with pFR-Luc (reporter gene; Stratagene, Agilent Technologies, Santa Clara, California, USA; #219050), pRL-SV40 (control gene for normalization of transfection efficiency and cell growth; Promega, Fitchburg, Wisconsin, USA; #E2231) and one pFA-CMV-hNR-LBD clone coding for the hinge region and ligand binding domain (LBD) of the human NR of interest. […] Firefly (reporter) and renilla (control) luminescence were measured after 14–16 h incubation using the Dual-Glo® Luciferase Assay System (Promega, Fitchburg, Wisconsin, USA; #E2980) according to manufacturer’s protocol on a Tecan Spark® 10M multimode microplate reader (Tecan Group AG, Männedorf, Switzerland). To obtain relative light units (RLU) firefly luminescence was divided by renilla luminescence and multiplied by 1000. […]

[4] = molecular target: T3, NR4A1 (Nur77) (Homo sapiens, UniProt P22736); assay: Gal4 hybrid reporter gene assay Nur77; format: cell-based; settings: 10 µM, n=3
T3 construct: expressed in transfected cells; host or cells: HEK293T
T3 sequence (P22736 360-595 limits assumed): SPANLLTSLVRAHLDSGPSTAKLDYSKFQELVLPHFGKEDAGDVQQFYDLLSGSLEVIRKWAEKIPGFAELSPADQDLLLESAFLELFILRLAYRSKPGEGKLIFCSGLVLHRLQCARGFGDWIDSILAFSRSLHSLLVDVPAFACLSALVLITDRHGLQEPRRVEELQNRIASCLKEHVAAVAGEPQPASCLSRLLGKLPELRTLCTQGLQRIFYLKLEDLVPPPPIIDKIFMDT
Protocol: as §1, §2

[5] = system: NR3B3 (ERRγ); settings: (lit.); ref Supplementary Table 1; read-out: Potency [nM] EC50, NR3B3 (ERRγ); cited from earlier work
[6] = system: NR3C2 (MR); settings: rem. act.; cited from earlier work
[7] = system: NR5A2 (LRH1); assay: Gal4 hybrid reporter gene assay LRH1; format: cell-based, human; settings: 1 µM; n=3; vs. DMSO ctrl
Protocol: as §1, §2

T1 sequence (P10276 183-417 limits assumed): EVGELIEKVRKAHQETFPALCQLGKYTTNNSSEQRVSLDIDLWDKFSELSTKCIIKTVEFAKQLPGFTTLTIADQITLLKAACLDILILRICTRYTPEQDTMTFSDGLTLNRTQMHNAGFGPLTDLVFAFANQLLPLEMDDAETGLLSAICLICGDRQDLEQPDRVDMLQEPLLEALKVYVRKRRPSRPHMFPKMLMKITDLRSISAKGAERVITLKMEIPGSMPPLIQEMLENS

CC/C(=C(\c1ccc(O)cc1)c1ccc(OCCN(C)C)cc1)c1ccccc1 [(Z)-4-Hydroxytamoxifen]
IC50 ([1]; (lit.), read-out: Potency [nM] IC50, NR3B2 (ERRβ)): 650 nM

CC/C(=C(/c1ccc(/C=C/C(=O)O)cc1)c1ccc2[nH]ncc2c1)c1ccc(F)cc1Cl [ARN810]
Activity on NR1B1 (RARα) ([2]; 1 µM, n=3): -0.97 mean log10(fold reporter gene activity) | Activity on NR1I2 (PXR) [3]: -0.68 mean log10(fold reporter gene activity)

C[C@@H]1Cc2c([nH]c3ccccc23)[C@@H](c2c(F)cc(/C=C/C(=O)O)cc2F)N1CC(C)(C)F [AZD9496]
Activity on NR targets outside NR3 family [mean log10(fold reporter gene activity)] NR1B1 (RARα) [2]: -0.43 log10(fold reporter gene activity)

COc1ccc(-c2coc3cc(O)cc(O)c3c2=O)cc1 [Biochanin A]
Activity on NR4A1 (Nurr77) [4]: 0.34 mean log10(fold reporter gene activity)

CCN(CC)c1ccc(/C=N/NC(=O)c2ccc(O)cc2)cc1 [DY131]
rel. activity from literature, NR3B2 (ERRβ): fold activation [1]: 2 fold | EC50 [5]: 130 nM

CC#C[C@]1(O)CC[C@H]2[C@@H]3CCC4=CC(=O)CCC4=C3[C@@H](c3ccc(N(C)C)cc3)C[C@@]21C [Mifepristone]
rel. activity from literature, NR3C2 (MR): % rem. act. [6]: 4%

COc1cc(/C=C(\C#N)C(=O)Nc2nnc(C(F)(F)F)s2)ccc1OCc1ccc(C(F)(F)F)cc1C(F)(F)F [XCT790]
Activity on NR targets outside NR3 family [mean log10(fold reporter gene activity)] NR5A2 (LRH1) [7]: 0.20 log10(fold reporter gene activity)
